Test results: ChEMBL document CHEMBL1127171, “N-2 methylated quaternary derivatives of -carboline-3-carboxylates inhibit acetylcholinesterase in vitro” (Bioorg Med Chem Lett, 1993)
Activity calls are given as the source filed them. The calls are words filed in the database; no cut-off is given here.

What was measured:
[1] = target: Acetylcholinesterase (Electrophorus electricus) (UniProt O42275); test: The compound was tested in vitro for the inhibition of acetylcholinesterase (AChE) isolated from electric eel at 10e-5 M
[2] = target: Acetylcholinesterase (Electrophorus electricus) (UniProt O42275); test: The compound was tested in vitro for the inhibition of acetylcholinesterase (AChE) isolated from electric eel at 10e-6 M
[3] = target: GABA-A receptor; anion channel; test: Displacement of [3H]flunitrazepam from GABA-A benzodiazepine receptor (BZR) of rat brain membranes; assay type: cell membranes, Membrane
[4] = target: Muscarinic acetylcholine receptor; test: The compound was tested in vitro for its binding affinity to muscarinic receptor on rat brain membrane by competitive binding assay using [3H]-QNB
[5] = target: Acetylcholinesterase (Electrophorus electricus) (UniProt O42275); test: The compound was tested in vitro for the inhibition of acetylcholinesterase (AChE) isolated from electric eel at 10e-5 M; NA means no significant activity at 10e-3 M
[6] = target: Acetylcholinesterase (Electrophorus electricus) (UniProt O42275); test: The compound was tested in vitro for the inhibition of acetylcholinesterase (AChE) isolated from electric eel at 10e-6 M; NA means no significant activity at 10e-3 M
[7] = target: GABA-A receptor; anion channel; test: Displacement of [3H]flunitrazepam from GABA-A benzodiazepine receptor (BZR) of rat brain membranes (NA = no significant activity); assay type: cell membranes, Membrane
[8] = test system: GABA-A receptor; anion channel; test: Displacement of [3H]flunitrazepam from GABA-A benzodiazepine receptor (BZR) of rat brain membranes (NA = no significant activity at 10e-3 M); assay type: cell membranes, Membrane

Acetylcholinesterase (Electrophorus electricus), sequence (O42275 24-633 limits assumed): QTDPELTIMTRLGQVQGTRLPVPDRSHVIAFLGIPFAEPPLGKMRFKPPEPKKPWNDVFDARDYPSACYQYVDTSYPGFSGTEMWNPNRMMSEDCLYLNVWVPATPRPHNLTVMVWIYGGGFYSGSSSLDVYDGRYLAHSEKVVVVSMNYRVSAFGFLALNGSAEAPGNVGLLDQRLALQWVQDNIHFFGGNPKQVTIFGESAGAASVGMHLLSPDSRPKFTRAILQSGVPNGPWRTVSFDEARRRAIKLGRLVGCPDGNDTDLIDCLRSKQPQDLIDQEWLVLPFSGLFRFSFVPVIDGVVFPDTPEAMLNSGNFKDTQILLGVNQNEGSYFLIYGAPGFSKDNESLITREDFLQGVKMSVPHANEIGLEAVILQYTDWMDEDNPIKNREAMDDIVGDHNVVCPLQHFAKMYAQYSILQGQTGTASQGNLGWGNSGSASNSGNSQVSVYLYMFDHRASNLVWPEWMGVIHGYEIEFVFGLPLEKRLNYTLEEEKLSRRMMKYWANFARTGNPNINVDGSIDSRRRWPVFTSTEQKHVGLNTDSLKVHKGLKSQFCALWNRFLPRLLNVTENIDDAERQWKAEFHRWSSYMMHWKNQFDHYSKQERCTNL

SMILES	inhibition [1]	inhibition [2]	Ki [3]	Ki [4]	inhibition [5]	inhibition [6]	Ki [7]	Ki [8]
CCCOC(=O)c1cc2c(c[n+]1C)[nH]c1ccccc12.[I-]	80.1%	34.9%	0.6 µM	1 µM	–	–	–	–
COC(=O)c1cc2c(c[n+]1C)[nH]c1ccccc12	43.1%	7.2%	1.4 µM	3.1 µM	–	–	–	–
CNC(=O)c1cc2c(c[n+]1C)[nH]c1ccccc12.[I-]	7.4%	1.3%	0.6 µM	27 µM	–	–	–	–
COC(=O)c1cc2c(cn1)[nH]c1ccccc12 [BETA-CCM]	–	–	–	–	inactive	inactive	0.003 µM	–
C[n+]1ccc2c(c1)[nH]c1ccccc12 [NORMELINONINE F]	41.2%	7.6%	–	–	–	–	–	Not Active
CCOC(=O)c1cc2c(c[n+]1C)[nH]c1ccccc12.[I-]	60.9%	13.7%	3.2 µM	0.7 µM	–	–	–	–
CN(C)C(=O)Oc1ccc[n+](C)c1	93%	59%	–	–	–	–	–	–
CCOC(=O)c1cc2cc[nH]c2c[n+]1C.[I-]	17%	4%	–	–	–	–	–	Not Active
CC(C)OC(=O)c1cc2c(c[n+]1C)[nH]c1ccccc12.[I-]	62%	14%	4.1 µM	0.5 µM	–	–	–	–
CCCCOC(=O)c1cc2c(c[n+]1C)[nH]c1ccccc12.[I-]	88%	46%	4.6 µM	0.5 µM	–	–	–	–
